From patent publication US20110118269A1, “FUSED PYRAZINE COMPOUNDS AS THEIR SALTS, USEFUL FOR THE TREATMENT OF DEGENERATIVE AND INFLAMMATORY DISEASES” (priority 2009, published 2011)
Converted amounts (≈) assume the structure as drawn.

How the values were obtained:
TNF-α = experiment: Septic shock model (LPS induced TNF alpha release); assay type: in vivo, BALB/cJ female mice; conditions: 3, 10 and 20 mg/kg, po, once, 30 min before LPS
Description: Injection of lipopolysaccharide (LPS) induces a rapid release of soluble tumour necrosis factor (TNF-α) into the periphery. This model is used to analyse prospective blockers of TNF release in vivo.
Six BALB/cJ female mice (20 g) per group are treated at the intended dosing once, po. Thirty minutes later, LPS (15 mg/kg; E. coli serotype 0111:B4) is injected ip. Ninety minutes later, mice are euthanized and blood is collected. Circulating TNF alpha levels are determined using commercially available ELISA kits. Dexamethasone (5 mg/kg) is used as a reference anti-inflammatory compound. Compound 1 is efficacious at 3, 10 and 20 mg/kg, po.

[1] = Aqueous solubility determination (Example 4); assay type: physicochemical
Description: Each salt is suspended in water and shaken for 24 h at 22° C. and 400 rpm. The resulting suspensions are filtered (0.2-μm filter). The obtained solids are analyzed by FT Raman. The pH of the filtrate is measured, and the concentration of the free base is determined by HPLC.

[2] = Thermodynamic aqueous solubility study by HPLC (Example 5); assay type: physicochemical; conditions: thermodynamic from solid
Text: Quantitation is done by HPLC with reference to a standard calibration curve. […] If there is sufficient solid remaining, the XRPD is collected.

[3] = test system: MMP13 expression in SW1353 cells; experiment: IL-1/OSM driven MMP13 expression in SW1353 cells (MMP13 ELISA); assay type: cell-based; conditions: Homo sapiens, IL-1β and OSM, 48 hr
Description: A 384 well format ELISA for measurement of MMP13 was developed. Various primary antibodies are tested, as well as various ELISA protocols. The following protocol is developed and validated to measure MMP13 levels in supernatant of cell cultures in 384 well plates.
Black maxisorb 384 well plates (Nunc 460518) are coated with 35 μL of a buffered solution containing 1.5 μg/mL anti-MMP13 antibody MAB511 (R&D systems). The antibody is diluted in carbonate-bicarbonate coating buffer (1.59 g Na2CO3 (Sigma S-7795) and 2.93 g NaHCO3 (Sigma S-5761) in 1 L MilliQ water, adjusted to pH 9.6). […] Substrate solution is prepared as follows: OmniMMP Fluorescent substrate (Biomol P-126) stock solution (2 mM in DMSO, stored at −20° C.) is diluted in 1× OmniMMP buffer (10× OmniMMP buffer: 500 mM Hepes (Sigma H4034), 100 mM CaCl2 (Sigma C5080), 0.5% Brij35 (Sigma 430 AG-6; adjusted to pH 7.0) to a final concentration of 0.01 mM. After an overnight incubation at 37° C., the active MMP13 in the sample has cleaved the substrate and released fluorescence. Readout is performed on the EnVision (Perkin Elmer) using 320 nm excitation/405 nm emission filters. […]

Filtrate pH ([1]; filtrate of the aqueous suspension after 24 h): 6.9 | solubility at 24 h ([1]; thermodynamic from solid, water, shaken 24 h at 22° C., free base concentration by HPLC, read-out: Measured solubility): 70 µg/mL (≈ 153 µM) | solubility ([2]; buffer pH 2.0, pH 2, aqueous buffer): 300 µg/mL (≈ 654 µM) | solubility ([2]; buffer pH 7.4, pH 7.4, aqueous buffer): 10 µg/mL (≈ 21.8 µM) | solubility ([2]; pure water, water): 10 µg/mL (≈ 21.8 µM) | IC50 [3]: 50 to 500 nM
Compound: CC(C)N1C[C@@H]2C[C@H]1CN2c1ccc(Nc2ncc(-c3coc(C(N)=O)c3)n3ncnc23)cc1 [Compound 1, 4-{8-[4-((1S,4S)-5-Isopropyl-2,5-diaza-bicyclo[2.2.1]hept-2-yl)-phenylamino]-[1,2,4]triazolo[1,5-a]pyrazin-5-yl}-furan-2-carboxamide]
efficacy in septic shock model (circulating TNF alpha levels) (TNF-α): efficacious
